The text below walks through data of PubChem BioAssay (NCI).

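Cultured in 96-well plates, cells were exposed to test compound for 48 hours across five concentrations. Definition used: TGI = concentration required for complete inhibition of growth.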

Among the test systems are SNB-19 CNS; UACC-257 melanoma; MDA-MB-231 breast; COLO 205 colon; MOLT-4 leukemia; OVCAR-5 ovarian; MALME-3M melanoma; IGROV1 ovarian; SN12C renal; A549 NSCLC.
Common to all, as to experiment: growth of human tumour cells (NCI), 48 h

Turning to `O=[N+]([O-])C(/C=C(\Cl)[N+](=O)[O-])=C(N1CCOCC1)N1CCOCC1`, the TGI in the experiment on SNB-19 CNS is over 100 µM; in the experiment on UACC-257 melanoma it was over 100 µM; in the experiment on MDA-MB-231 breast, 43.7 µM; in the experiment with COLO 205 colon, 33.9 µM; in the experiment with MOLT-4 leukemia, over 100 µM; with OVCAR-5 ovarian, 57.2 µM. Further, the TGI is 70.3 µM in the experiment with MALME-3M melanoma, over 100 µM in the experiment with IGROV1 ovarian, over 100 µM in the experiment with SN12C renal and 39.3 µM in the experiment with A549 NSCLC.

Take `N#CC1=C(N)OC2=C(CCCc3ccc([N+](=O)[O-])cc32)C1c1ccc(Cl)cc1` (stereo not given): the TGI in the experiment on SNB-19 CNS is over 100 µM; in the experiment with UACC-257 melanoma, over 100 µM; in the experiment with MDA-MB-231 breast, over 100 µM; with COLO 205 colon, over 100 µM; with MOLT-4 leukemia it was 93.1 µM; in the experiment with OVCAR-5 ovarian it was over 100 µM. Also, the TGI in the experiment with MALME-3M melanoma was 31.4 µM; in the experiment on IGROV1 ovarian, over 100 µM; in the experiment on SN12C renal it was 6.78 µM; in the experiment on A549 NSCLC, over 100 µM.

Regarding `C(/C=C(\Nc1ccccc1)c1ccc2ccccc2c1)=Nc1ccccc1`, the TGI worked out at 8.24 µM with SNB-19 CNS; 19.2 µM in the experiment on UACC-257 melanoma; 4.1 µM in the experiment on MDA-MB-231 breast; 4.1 µM in the experiment with COLO 205 colon; 2.62 µM with MOLT-4 leukemia; 9.86 µM in the experiment on OVCAR-5 ovarian. In addition, the TGI with MALME-3M melanoma amounted to 15 µM; in the experiment on IGROV1 ovarian, 13.7 µM; in the experiment with SN12C renal, 5.15 µM; in the experiment with A549 NSCLC, 18.4 µM.

`CC(C)C1OC(=O)C(Cc2ccccc2)N(C)C(=O)C(C(C)C)OC(=O)C(Cc2ccccc2)N(C)C(=O)C(C(C)C)OC(=O)C(Cc2ccccc2)N(C)C1=O` (stereo not given): the TGI was determined as 2.18 µM in the experiment with SNB-19 CNS; 2 µM in the experiment with UACC-257 melanoma; 2.67 µM in the experiment with MDA-MB-231 breast; 1.95 µM in the experiment with COLO 205 colon; 2.33 µM with MOLT-4 leukemia; 2.44 µM in the experiment on OVCAR-5 ovarian. For the same molecule, the TGI in the experiment on MALME-3M melanoma is 1.29 µM; in the experiment on IGROV1 ovarian, 2.43 µM; in the experiment with SN12C renal, 2.14 µM; in the experiment with A549 NSCLC, 1.87 µM.

For the molecule `CC[C@@]1(O)C(=O)OCc2c1cc1n(c2=O)Cc2c-1nc1ccc(N)cc1c2CC[Si](C)(C)C`, the TGI was 11.1 µM with SNB-19 CNS; 0.155 µM with UACC-257 melanoma; 0.428 µM in the experiment with MDA-MB-231 breast; 0.197 µM with COLO 205 colon; under 0.01 µM with MOLT-4 leukemia; 1 µM in the experiment with OVCAR-5 ovarian. Further, the TGI in the experiment with MALME-3M melanoma was 0.31 µM; in the experiment with IGROV1 ovarian it was 0.469 µM; in the experiment with SN12C renal, under 0.01 µM; in the experiment with A549 NSCLC, 0.177 µM.

Consider `COc1cc2c(c(O)c1OC)C(O)C1CCC(=O)N1C2c1ccc2c(c1)OCO2` (stereo not given), for which the TGI in the experiment with SNB-19 CNS, in the experiment on UACC-257 melanoma, in the experiment on MDA-MB-231 breast, in the experiment on COLO 205 colon, with MOLT-4 leukemia and in the experiment with OVCAR-5 ovarian was over 100 µM in each case. Further, the TGI in the experiment on MALME-3M melanoma, in the experiment with IGROV1 ovarian, in the experiment on SN12C renal and with A549 NSCLC was over 100 µM each time.

As for `CCOC(=O)c1cccc(N=NNc2cccc(C(=O)OCC)c2)c1`, the TGI in the experiment with SNB-19 CNS was 46.2 µM; with UACC-257 melanoma, over 100 µM; in the experiment on MDA-MB-231 breast it was 53.3 µM; with COLO 205 colon, over 100 µM; in the experiment on MOLT-4 leukemia it was over 100 µM; with OVCAR-5 ovarian, over 100 µM. Besides, the TGI in the experiment on MALME-3M melanoma is over 100 µM; in the experiment on IGROV1 ovarian it was over 100 µM; in the experiment with SN12C renal, 73.5 µM; in the experiment on A549 NSCLC, over 100 µM.

For `O=C1c2ccccc2CC12Cc1ccc3c(c1C2=O)CCCC3` (stereo not given), the TGI in the experiment with SNB-19 CNS is over 100 µM; in the experiment with UACC-257 melanoma it was over 100 µM; in the experiment on MDA-MB-231 breast it was 86 µM; with COLO 205 colon, over 100 µM; in the experiment on MOLT-4 leukemia, 12.5 µM; with OVCAR-5 ovarian, over 100 µM. In addition, the TGI with MALME-3M melanoma, with IGROV1 ovarian, with SN12C renal and in the experiment with A549 NSCLC was over 100 µM each time.

As to `CC(C)=CC(=O)c1[nH]c2ccccc2c1CC(=O)NCCc1cnc[nH]1`, the TGI in the experiment on SNB-19 CNS, in the experiment on UACC-257 melanoma, in the experiment with MDA-MB-231 breast, in the experiment on COLO 205 colon, with MOLT-4 leukemia and with OVCAR-5 ovarian was over 100 µM each time. Moreover, the TGI in the experiment on MALME-3M melanoma, in the experiment on IGROV1 ovarian, in the experiment on SN12C renal and in the experiment on A549 NSCLC was over 100 µM each time.

Regarding `Cc1ccc(-c2ccc3c(c2)Sc2ccccc2O3)n1C`, the TGI with SNB-19 CNS was over 100 µM; with UACC-257 melanoma it was over 100 µM; in the experiment on MDA-MB-231 breast, over 100 µM; with COLO 205 colon it was 2.12 µM; in the experiment on MOLT-4 leukemia, over 67.8 µM; in the experiment with OVCAR-5 ovarian, over 52.9 µM. Further, the TGI in the experiment on MALME-3M melanoma was 50 µM; in the experiment on IGROV1 ovarian, 1.2 µM; in the experiment on SN12C renal it was 7.88 µM; in the experiment with A549 NSCLC, over 100 µM.

Consider `NS(=O)(=O)c1ccc(Nc2c3ccccc3nc3c(C(=O)NC(CO)(CO)CO)cccc23)cc1`, for which the TGI in the experiment on SNB-19 CNS was 0.783 µM; in the experiment on UACC-257 melanoma, 0.346 µM; in the experiment on MDA-MB-231 breast, 0.434 µM; in the experiment with COLO 205 colon it was 0.175 µM; in the experiment on MOLT-4 leukemia it was 0.195 µM; in the experiment with OVCAR-5 ovarian, 0.709 µM. In addition, the TGI with MALME-3M melanoma came out at 0.272 µM; in the experiment with IGROV1 ovarian it was 0.506 µM; with SN12C renal it was 0.695 µM; with A549 NSCLC, 0.314 µM.

`Cc1cccc(NC(=S)NNC(=O)c2cc(-c3ccccc3)nc3ccccc23)c1`: the TGI is over 100 µM with SNB-19 CNS; over 100 µM with UACC-257 melanoma; 95 µM with MDA-MB-231 breast; 40.1 µM with COLO 205 colon; 84.3 µM in the experiment on MOLT-4 leukemia; over 100 µM with OVCAR-5 ovarian. For the same molecule, the TGI in the experiment with MALME-3M melanoma was 83.8 µM; in the experiment with IGROV1 ovarian, over 100 µM; with SN12C renal it was over 100 µM; in the experiment on A549 NSCLC it was 70.7 µM.

Turning to `CCC(CCCC[C@H]1CC[C@@H]2CC(=O)C[C@H]12)OC` (stereo not given in full), the TGI with SNB-19 CNS, in the experiment on UACC-257 melanoma, in the experiment on MDA-MB-231 breast, in the experiment with COLO 205 colon, in the experiment with MOLT-4 leukemia and in the experiment on OVCAR-5 ovarian was over 100 µM each time. The TGI in the experiment on MALME-3M melanoma, in the experiment on IGROV1 ovarian, in the experiment on SN12C renal and in the experiment with A549 NSCLC was over 100 µM throughout.
